# Tested on: gastric emptying in rats
# Assay: Gastric emptying in rats (phenol red gel gavage)
# Type: in vivo, Male Harlan Sprague Dawley (HSD) rats
# Protocol: This experiment followed a modification of the method of Scarpignato, et al., Arch.
# Male Harlan Sprague Dawley (HSD) rats were used.
# The determination of gastric emptying by the method described below was performed after a fast of −20 hours to ensure that the stomach contained no chyme that would interfere with spectrophotometric absorbance measurements.
# Twenty minutes after gavage, rats were anesthetized using 5% halothane, the stomach exposed and clamped at the pyloric and lower esophageal sphincters using artery forceps, removed and opened into an alkaline solution which was made up to a fixed volume. Stomach content was derived from the intensity of the phenol red in the alkaline solution, measured by absorbance at a wavelength of 560 nm. In separate experiments on 7 rats, the stomach and small intestine were both excised and opened into an alkaline solution. […] To account for a maximal dye recovery of less than 100%, percent of stomach contents remaining after 20 min were expressed as a fraction of the gastric contents recovered from control rats sacrificed immediately after gavage in the same experiment. Percent gastric contents remaining=(absorbance at 20 min)/(absorbance at 0 mm)×100.
# In baseline studies, with no drug treatment, gastric emptying over 20 min was determined.
substance,measurement,setting,value
exendin-4 acid: exendin agonist; synthesized according to standard peptide synthesis methods,EC50 (inhibition of gastric emptying),"conscious rats, gastric contents remaining 20 min after gavage, dose-response",0.12 µg
same,Inhibition of gastric emptying (in words),"rats, FIG. 6 and Table II",potent inhibitors of gastric emptying

# — patent US7157555B1, “Exendin agonist compounds” (Amylin Pharmaceuticals, Inc., priority 1997, dated 2007)
